Patent US6663865B1, “Tumor necrosis factor antagonists and their use in endometriosis” (Applied Research Systems ARS Holding N.V., priority 1999, dated 2003)

Assays:
endometriosis = details: cited from earlier work
endometriotic-like foci = experiment: Experimental model of endometriosis in the rat (size of engraftments); assay type: in vivo; details: for Mean ± SEM Post-treatment values (engraftment surface area): s.c., soluble TNF-RI 10 mg/kg, Antide 2 mg/kg; for Mean ± SEM Pre-treatment values (engraftment surface area): baseline at pre-treatment laparatomy
Protocol: Experimental model of endometriosis in the rat. To explore the effects of the recombinant soluble TNF-RI in endometriosis, a previously described experimental model (Jones, 1987) was used with minor modifications. Under Inoketam/Rompun anaesthesia, an autologous fragment of endometrial tissue (1 cm in length) was resected from the right uterine horn and placed in PBS at 37° C. The uterine segment was opened by a longitudinal incision, and a 5×5 mm section was transplanted, without removing the myometrium, onto the inner surface of the abdominal wall using non-absorbable silk suture at four comers.
Exploration of the study drugs effects in the experimental model of endometriosis. […] One further group of rats, not undergoing any surgical procedure, was kept as a normal control group. Three weeks after the induction of endometriosis, the animals underwent a second laparatomy (pre-treatment laparatomy) to evaluate the size and viability of the ectopic endometrial tissue. The surface area (length×width) was measured using a calliper and recorded. The animals showing viable engraftments were assigned to the designated treatment groups as reported in Table I, so that at the end of the experiment, six animals/group for the first sacrifice time-point and five animals/group for the second sacrifice time-point were obtained. The treatments were started after a 1-week recovery period. The control groups received saline alone; another group received three subcutaneous injections of 2 mg/kg Antide every 3 days with a regimen previously shown to suppress ovarian and hypothalamic activity (Sharpe et al., 1990). A further group received 10 mg/kg recombinant soluble TNF-RI, divided into two daily doses over a 1-week period.
(§1) At the designated sacrifice time-points (2 and 9 days after the last treatment i.e. 36 and 43 days after surgical engraftment), the animals were anaesthetised; blood samples were collected from abdominal aorta, sera were separated and stored at −20° C. until analyzed for estradiol-17β level determination. Spleens were excised for measurement of the Natural Killer (NK) activity. The surface area of endometriosis-like foci were measured at each sacrifice time-point in order to normalize data, the percent variation versus the pre-treatment laparatomy value was calculated by the formula: [formula]
where X0 is the size at time of pre-treatment laparatomy and X is the size at the time of sacrifice. The mean value of percent variation in each group was then computed.

[1] = Serum estradiol-17β determination by radioimmunoassay in rats with experimental endometriosis; assay type: in vivo, rat; details: second observation time-point (9 days after last treatment)
Protocol: as §1
Estradiol-17β determination. Serum estradiol-17β concentrations were determined using a commercially available kit to quantify estradiol in serum with no extraction step (DPC, Los Angeles, Calif., USA). Briefly, ^125I-labeled estradiol competes with estradiol in the serum sample for antibody sites. After incubation, separation of bound from free was achieved by decanting. The tube was then counted in a gamma counter (LKB-Pharmacia Wallak), the counts being inversely related to the amount of estradiol present in the serum sample. The quantity of estradiol in the samples was determined by comparing the counts to a calibration curve. […] Samples from the same experimental session were analyzed in a single immunoassay.

Compound | crude recurrence rates (endometriosis; after up to 4 years) | patients suffering from pain with improved symptoms (endometriosis; endometriosis patients) | patients abandoning therapy because of weight gain and androgenic side effects (endometriosis; human, in vivo) | size reduction of the endometriotic-like foci compared to the original dimension (endometriotic-like foci; 2 days after last treatment (first sacrifice time-point)) | Mean ± SEM Post-treatment values (engraftment surface area) (endometriotic-like foci; 2 days after last treatment) | size reduction of the endometriotic-like foci compared to the original dimension (endometriotic-like foci; 9 days after last treatment (second sacrifice time-point)) | Mean ± SEM Post-treatment values (engraftment surface area) (endometriotic-like foci; 9 days after last treatment) | Mean ± SEM Pre-treatment values (engraftment surface area) (endometriotic-like foci; group observed 2 days after last treatment) | Mean ± SEM Pre-treatment values (engraftment surface area) (endometriotic-like foci; group observed 9 days after last treatment) | serum estradiol-17β concentration compared to untreated controls [1]
C#C[C@]1(O)CC[C@H]2[C@@H]3CCC4=Cc5oncc5C[C@]4(C)[C@H]3CC[C@@]21C [Danazol] | 40%-50% | 66-100% | up to 80% | – | – | – | – | – | – | –
Antide | – | – | – | 94% | 0.08 ± 0.02 cm^2 | 88% | 0.19 ± 0.09 cm^2 | 1.43 ± 0.34 cm^2 | 1.41 ± 0.32 cm^2 | significant difference
